Results: the NIST ThermoML archive (doi:10.1016/j.jct.2006.07.017)

Assay: xn = mol fraction of the nth substance listed
Conditions: 101 kPa, Liquid

Cc1ccccc1C [1,2-dimethylbenzene] + CN(C)C=O
Conditions | mass density [kg/m3]
293.15 K, x1 = 0.0555 | 943.56
293.15 K, x1 = 0.1111 | 938.71
293.15 K, x1 = 0.1754 | 933.3
293.15 K, x1 = 0.2352 | 928.47
293.15 K, x1 = 0.2952 | 923.8
293.15 K, x1 = 0.3562 | 919.23
293.15 K, x1 = 0.4251 | 914.29
293.15 K, x1 = 0.4865 | 910.06
293.15 K, x1 = 0.5484 | 905.95
293.15 K, x1 = 0.612 | 901.89
293.15 K, x1 = 0.6785 | 897.8
293.15 K, x1 = 0.7325 | 894.58
293.15 K, x1 = 0.7954 | 890.96
293.15 K, x1 = 0.8654 | 887.04
293.15 K, x1 = 0.9325 | 883.4
303.15 K, x1 = 0.0652 | 933.58
303.15 K, x1 = 0.1251 | 928.39
303.15 K, x1 = 0.1854 | 923.37
303.15 K, x1 = 0.2462 | 918.5
303.15 K, x1 = 0.3125 | 913.42
303.15 K, x1 = 0.3785 | 908.59
303.15 K, x1 = 0.4358 | 904.56
303.15 K, x1 = 0.4962 | 900.47
303.15 K, x1 = 0.5521 | 896.83
303.15 K, x1 = 0.6125 | 893.04
303.15 K, x1 = 0.6784 | 889.05
303.15 K, x1 = 0.7451 | 885.17
303.15 K, x1 = 0.8012 | 882.01
303.15 K, x1 = 0.8658 | 878.48
303.15 K, x1 = 0.9485 | 874.12
313.15 K, x1 = 0.0441 | 926.11
313.15 K, x1 = 0.1025 | 920.99
313.15 K, x1 = 0.1762 | 914.82
313.15 K, x1 = 0.2341 | 910.18
313.15 K, x1 = 0.2951 | 905.51
313.15 K, x1 = 0.3756 | 899.63
313.15 K, x1 = 0.4415 | 895.06
313.15 K, x1 = 0.5012 | 891.08
313.15 K, x1 = 0.5685 | 886.8
313.15 K, x1 = 0.6215 | 883.55
313.15 K, x1 = 0.6865 | 879.72
313.15 K, x1 = 0.7451 | 876.39
313.15 K, x1 = 0.8021 | 873.25
313.15 K, x1 = 0.8654 | 869.88
313.15 K, x1 = 0.9448 | 865.79
323.15 K, x1 = 0.0485 | 916.16
323.15 K, x1 = 0.1124 | 910.62
323.15 K, x1 = 0.1852 | 904.61
323.15 K, x1 = 0.2521 | 899.35
323.15 K, x1 = 0.3251 | 893.91
323.15 K, x1 = 0.3952 | 888.96
323.15 K, x1 = 0.4658 | 884.2
323.15 K, x1 = 0.5315 | 879.99
323.15 K, x1 = 0.5952 | 876.08
323.15 K, x1 = 0.6584 | 872.37
323.15 K, x1 = 0.7251 | 868.61
323.15 K, x1 = 0.7952 | 864.81
323.15 K, x1 = 0.8456 | 862.18
323.15 K, x1 = 0.9012 | 859.35
323.15 K, x1 = 0.9599 | 856.45
333.15 K, x1 = 0.0521 | 906.08
333.15 K, x1 = 0.1245 | 899.89
333.15 K, x1 = 0.1895 | 894.6
333.15 K, x1 = 0.2451 | 890.29
333.15 K, x1 = 0.3021 | 886.06
333.15 K, x1 = 0.3685 | 881.35
333.15 K, x1 = 0.4214 | 877.76
333.15 K, x1 = 0.4912 | 873.24
333.15 K, x1 = 0.5584 | 869.09
333.15 K, x1 = 0.6121 | 865.92
333.15 K, x1 = 0.6725 | 862.48
333.15 K, x1 = 0.7315 | 859.26
333.15 K, x1 = 0.7943 | 855.95
333.15 K, x1 = 0.8651 | 852.38
333.15 K, x1 = 0.9432 | 848.58
343.15 K, x1 = 0.0625 | 895.2
343.15 K, x1 = 0.1325 | 889.33
343.15 K, x1 = 0.1952 | 884.33
343.15 K, x1 = 0.2658 | 878.99
343.15 K, x1 = 0.3321 | 874.24
343.15 K, x1 = 0.3965 | 869.86
343.15 K, x1 = 0.4652 | 865.41
343.15 K, x1 = 0.5325 | 861.27
343.15 K, x1 = 0.5912 | 857.83
343.15 K, x1 = 0.6524 | 854.4
343.15 K, x1 = 0.7125 | 851.16
343.15 K, x1 = 0.7895 | 847.19
343.15 K, x1 = 0.8462 | 844.4
343.15 K, x1 = 0.9012 | 841.76
343.15 K, x1 = 0.9577 | 839.14
353.15 K, x1 = 0.0715 | 884.27
353.15 K, x1 = 0.1252 | 879.83
353.15 K, x1 = 0.1858 | 875.05
353.15 K, x1 = 0.2521 | 870.08
353.15 K, x1 = 0.3215 | 865.16
353.15 K, x1 = 0.3865 | 860.79
353.15 K, x1 = 0.4251 | 858.31
353.15 K, x1 = 0.4851 | 854.59
353.15 K, x1 = 0.5584 | 850.27
353.15 K, x1 = 0.6221 | 846.71
353.15 K, x1 = 0.6825 | 843.48
353.15 K, x1 = 0.7551 | 839.78
353.15 K, x1 = 0.8154 | 836.84
353.15 K, x1 = 0.8851 | 833.58
353.15 K, x1 = 0.9411 | 831.05

Cc1cccc(C)c1 [1,3-dimethylbenzene] + CN(C)C=O
Conditions | mass density [kg/m3]
293.15 K, x1 = 0.0541 | 942.31
293.15 K, x1 = 0.1151 | 935.54
293.15 K, x1 = 0.1752 | 929.18
293.15 K, x1 = 0.2332 | 923.31
293.15 K, x1 = 0.3021 | 916.67
293.15 K, x1 = 0.3661 | 910.82
293.15 K, x1 = 0.4341 | 904.88
293.15 K, x1 = 0.4984 | 899.53
293.15 K, x1 = 0.5624 | 894.44
293.15 K, x1 = 0.6165 | 890.3
293.15 K, x1 = 0.6751 | 885.98
293.15 K, x1 = 0.7315 | 881.96
293.15 K, x1 = 0.8085 | 876.67
293.15 K, x1 = 0.8758 | 872.21
293.15 K, x1 = 0.9425 | 867.93
303.15 K, x1 = 0.0625 | 932.16
303.15 K, x1 = 0.1251 | 925.21
303.15 K, x1 = 0.1852 | 918.87
303.15 K, x1 = 0.2515 | 912.21
303.15 K, x1 = 0.3251 | 905.23
303.15 K, x1 = 0.3895 | 899.45
303.15 K, x1 = 0.4517 | 894.13
303.15 K, x1 = 0.5214 | 888.45
303.15 K, x1 = 0.5865 | 883.4
303.15 K, x1 = 0.6485 | 878.8
303.15 K, x1 = 0.7125 | 874.25
303.15 K, x1 = 0.7885 | 869.05
303.15 K, x1 = 0.8458 | 865.29
303.15 K, x1 = 0.9012 | 861.75
303.15 K, x1 = 0.9666 | 857.68
313.15 K, x1 = 0.0569 | 923.43
313.15 K, x1 = 0.1125 | 917.21
313.15 K, x1 = 0.1812 | 909.9
313.15 K, x1 = 0.2554 | 902.46
313.15 K, x1 = 0.3251 | 895.89
313.15 K, x1 = 0.4023 | 889.03
313.15 K, x1 = 0.4785 | 882.65
313.15 K, x1 = 0.5445 | 877.43
313.15 K, x1 = 0.6054 | 872.82
313.15 K, x1 = 0.6695 | 868.19
313.15 K, x1 = 0.7254 | 864.3
313.15 K, x1 = 0.7812 | 860.56
313.15 K, x1 = 0.8452 | 856.41
313.15 K, x1 = 0.9032 | 852.77
313.15 K, x1 = 0.9577 | 849.43
323.15 K, x1 = 0.0482 | 914.86
323.15 K, x1 = 0.1065 | 908.29
323.15 K, x1 = 0.1684 | 901.67
323.15 K, x1 = 0.2341 | 895.02
323.15 K, x1 = 0.3051 | 888.24
323.15 K, x1 = 0.3659 | 882.75
323.15 K, x1 = 0.4252 | 877.65
323.15 K, x1 = 0.4932 | 872.11
323.15 K, x1 = 0.5641 | 866.62
323.15 K, x1 = 0.6247 | 862.17
323.15 K, x1 = 0.6951 | 857.22
323.15 K, x1 = 0.7554 | 853.17
323.15 K, x1 = 0.8251 | 848.68
323.15 K, x1 = 0.8812 | 845.18
323.15 K, x1 = 0.9572 | 840.6
333.15 K, x1 = 0.0547 | 904.33
333.15 K, x1 = 0.1122 | 897.9
333.15 K, x1 = 0.1815 | 890.59
333.15 K, x1 = 0.2551 | 883.29
333.15 K, x1 = 0.3151 | 877.68
333.15 K, x1 = 0.3821 | 871.76
333.15 K, x1 = 0.4554 | 865.64
333.15 K, x1 = 0.5054 | 861.68
333.15 K, x1 = 0.5625 | 857.35
333.15 K, x1 = 0.6262 | 852.72
333.15 K, x1 = 0.6785 | 849.09
333.15 K, x1 = 0.7412 | 844.91
333.15 K, x1 = 0.8054 | 840.8
333.15 K, x1 = 0.8714 | 836.74
333.15 K, x1 = 0.9548 | 831.81
343.15 K, x1 = 0.0625 | 893.44
343.15 K, x1 = 0.1214 | 886.95
343.15 K, x1 = 0.1851 | 880.31
343.15 K, x1 = 0.2451 | 874.4
343.15 K, x1 = 0.3121 | 868.17
343.15 K, x1 = 0.3852 | 861.78
343.15 K, x1 = 0.4451 | 856.83
343.15 K, x1 = 0.5054 | 852.1
343.15 K, x1 = 0.5641 | 847.72
343.15 K, x1 = 0.6214 | 843.62
343.15 K, x1 = 0.6885 | 839.06
343.15 K, x1 = 0.7451 | 835.37
343.15 K, x1 = 0.8125 | 831.16
343.15 K, x1 = 0.8821 | 827
343.15 K, x1 = 0.9525 | 822.95
353.15 K, x1 = 0.0521 | 884.42
353.15 K, x1 = 0.112 | 877.82
353.15 K, x1 = 0.1785 | 870.9
353.15 K, x1 = 0.2352 | 865.33
353.15 K, x1 = 0.2958 | 859.69
353.15 K, x1 = 0.3562 | 854.38
353.15 K, x1 = 0.4215 | 848.95
353.15 K, x1 = 0.4854 | 843.93
353.15 K, x1 = 0.5412 | 839.75
353.15 K, x1 = 0.6121 | 834.72
353.15 K, x1 = 0.6858 | 829.79
353.15 K, x1 = 0.7551 | 825.38
353.15 K, x1 = 0.8254 | 821.12
353.15 K, x1 = 0.8851 | 817.65
353.15 K, x1 = 0.9512 | 813.95
